Earlier results in patent publication US20190231888A1, “TEXAPHYRIN AND ANTITUMOR ANTIBIOTIC CONJUGATES” (priority 2016, published 2019).

Details: intravenous, determined in one study; cited from earlier work

Substance: lutetium texaphyrin
- maximum tolerated dose: 5.2 mg/kg
